Test results: patent publication US20170253607A1, “LONG-ACTING HIV PROTEASE INHIBITOR” (Shionogi & Co., Ltd., priority 2014, published 2017)

Target: HIV-1 PR (Human immunodeficiency virus type 1 group M subtype B, UniProt P04585)
Test: HIV-protease inhibitory activity assay (FRET peptide substrate)
Assay type: biochemical
Conditions: Test Example 1
Method in brief: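 Compounds were preincubated with HIV-1 PR (0.83 ng) at room temperature in pH 4.8 NaAc buffer (0.5 M NaCl, EDTA, DTT, Tween 20), then HiLyte Fluor 488/QXL 520 FRET peptide (2 μmol/L final) was added for 60 min. Fluorescence was read at 485/535 nm, and IC50 was fitted by four-parameter logistic regression.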

Compound | IC50 [nM]
COc1ccc(S(=O)(=O)N(CC(C)C)CC(O)C(Cc2ccc(-c3sccc3C(=O)O)cc2)NC(=O)OC2COC3(C)OCCC23)cc1 (stereo not drawn) [Compound I-108] | 1.12
COc1ccc(S(=O)(=O)N(CC(C)C)CC(O)C(Cc2ccc(OCc3ncsc3-c3sc4c(c3C(=O)O)CC(C)(C)CC4)cc2)NC(=O)OC2COC3OCCC23)cc1 (stereo not drawn) [Compound I-828] | 0.96
COc1ccc(S(=O)(=O)N(CC(C)C)CC(O)C(Cc2ccc(NCc3cccc(-c4sc5c(c4C(=O)O)CC(C)(C)CC5)c3Cl)cc2)NC(=O)OC2COC3(C)OCCC23)cc1 (stereo not drawn) [Compound I-544] | 3.65
COc1ccc(S(=O)(=O)N(CC(C)C)CC(O)C(Cc2ccc(OCc3ccccc3-c3ccc4c(c3)C(=O)C(c3ccc(C(F)(F)F)cc3)C4=O)cc2)NC(=O)OC2COC3(C)OCCC23)cc1 (stereo not drawn) [Compound I-71] | 1.77
COc1ccc(S(=O)(=O)N(CC(C)C)CC(O)C(Cc2ccc(N(Cc3ccccc3-c3sc4c(c3C(=O)O)CC(C)(C)CC4)CC3CC3)cc2)NC(=O)OC2COC3(C)OCCC23)cc1 (stereo not drawn) [Compound I-460] | 3.58
COc1ccc(S(=O)(=O)N(CC(C)C)CC(O)C(Cc2ccc(N(CCN3CCOCC3)Cc3ccccc3-c3sc4c(c3C(=O)O)CC(C)(C)CC4)cc2)NC(=O)OC2COC3(C)OCCC23)cc1 (stereo not drawn) [Compound I-429] | 2.21
COc1ccc(S(=O)(=O)N(CC(C)C)CC(O)C(Cc2ccc(N(C)Cc3cc(N4CCC4)ccc3-c3sc4c(c3C(=O)O)CC(C)(C)CC4)cc2)NC(=O)OC2COC3(C)OCCC23)cc1 (stereo not drawn) [Compound I-708] | 1.65
COc1ccc(S(=O)(=O)N(CC2CCCC2)CC(O)C(Cc2ccc(OCc3ccccc3Cn3nc4c(c3C(=O)O)CC(C)(C)CC4)cc2)NC(=O)OC2COC3(C)OCCC23)cc1 (stereo not drawn) [Compound I-216] | 1.93
COc1ccc(S(=O)(=O)N(CC(C)C)CC(O)C(Cc2ccc(N(C)CCOc3ccccc3-c3sc4c(c3C(=O)O)CC(C)(C)CC4)cc2)NC(=O)OC2COC3OCCC23)cc1 (stereo not drawn) [Compound I-864] | 2.25
COc1ccc(S(=O)(=O)N(CC(C)C)CC(O)C(Cc2ccc(N(Cc3ccoc3)Cc3ccccc3-c3sc4c(c3C(=O)O)CC(C)(C)CC4)cc2)NC(=O)OC2COC3(C)OCCC23)cc1 (stereo not drawn) [Compound I-424] | 5.41
COc1ccc(S(=O)(=O)N(CC(C)C)CC(O)C(Cc2ccc(NCc3nc(N(C4CCCCC4)C4CCCCC4)sc3-c3sc4c(c3C(=O)O)CC(C)(C)CC4)cc2)NC(=O)OC2COC3(C)OCCC23)cc1 (stereo not drawn) [Compound I-760] | 3.38
COc1ccc(S(=O)(=O)N(CC(C)C)CC(O)C(Cc2ccc(N(Cc3ccccc3)Cc3ccccc3-c3sc4c(c3C(=O)O)CC(C)(C)CC4)cc2)NC(=O)OC2COC3(C)OCCC23)cc1 (stereo not drawn) [Compound I-299] | 16.5
COc1ccc(S(=O)(=O)N(CC(C)C)CC(O)C(Cc2ccc(OCc3ccccc3-n3nc4c(c3C(=O)O)CC3(CCCC3)CC4)cc2)NC(=O)OC2COC3(C)OCCC23)cc1 (stereo not drawn) [Compound I-53] | 0.83
COc1ccc(S(=O)(=O)N(CC(C)C)CC(O)C(Cc2ccc(NCc3ccccc3-c3c(C(=O)O)cnc4ccsc34)cc2)NC(=O)OC2COC3(C)OCCC23)cc1 (stereo not drawn) [Compound I-501] | 1.82
COc1ccc(S(=O)(=O)N(CC(C)C)CC(O)C(Cc2ccc(NCc3ccccc3-c3cnc(-c4sc5c(c4C(=O)O)CC(C)(C)CC5)s3)cc2)NC(=O)OC2COC3(C)OCCC23)cc1 (stereo not drawn) [Compound I-766] | 3.28
COc1ccc(S(=O)(=O)N(CC(C)C)CC(O)C(Cc2ccc(Nc3ccc(-c4sc5c(c4C(=O)O)CC(C)(C)CC5)cc3)cc2)NC(=O)OC2COC3(C)OCCC23)cc1 (stereo not drawn) [Compound I-468] | 5.6
COC(=O)NC(C(=O)NC(Cc1ccccc1)C(O)CN(Cc1ccc(-c2sc3c(c2C(=O)O)CC(C)(C)CC3)cc1)NC(=O)C(NC(=O)OC)C(C)(C)C)C(C)(C)C (stereo not drawn) [Compound I-901] | 2.34

Compound | IC50 [nM]
COc1ccc(S(=O)(=O)N(CC(C)C)CC(O)C(Cc2ccc(OCc3ccccc3-c3sc(-c4ccccc4)cc3C(=O)O)cc2)NC(=O)OC2COC3OCCC23)cc1 (stereo not drawn) [Compound I-848] | 0.89
COc1ccc(S(=O)(=O)N(CC(C)C)CC(O)C(Cc2ccc(NCC3CCCCN3C(=O)c3sc4c(c3C(=O)O)CC(C)(C)CC4)cc2)NC(=O)OC2COC3(C)OCCC23)cc1 (stereo not drawn) [Compound I-605] | 1.96
COc1ccc(S(=O)(=O)N(CC(C)C)CC(O)C(Cc2ccc(NCc3ccc(N4CC(C)(C)C4=O)cc3-c3sc4c(c3C(=O)O)CC(C)(C)CC4)cc2)NC(=O)OC2COC3(C)OCCC23)cc1 (stereo not drawn) [Compound I-740] | 1.6
COc1ccc(S(=O)(=O)N(CC(C)C)CC(O)C(Cc2ccc(OCc3ccccc3NC(=O)Nc3sc4c(c3C(=O)O)CC(C)(C)CC4)cc2)NC(=O)OC2COC3(C)OCCC23)cc1 (stereo not drawn) [Compound I-229] | 3.7
COc1ccc(S(=O)(=O)N(CC(C)C)CC(O)C(Cc2ccc(NCc3ccc(-c4sc5c(c4C(=O)O)CC(C)(C)CC5)c(F)c3)cc2)NC(=O)OC2COC3(C)OCCC23)cc1 (stereo not drawn) [Compound I-291] | 3.54
COc1ccc(S(=O)(=O)N(CC(C)C)CC(O)C(Cc2ccc(OCc3ccccc3-c3ccc4c(c3)C(=O)C(c3ccccc3C)C4=O)cc2)NC(=O)OC2COC3(C)OCCC23)cc1 (stereo not drawn) [Compound I-176] | 1.01
COc1ccc(S(=O)(=O)N(CC(C)C)CC(O)C(Cc2ccc(NC(=O)Nc3ccccc3-c3sc4c(c3C(=O)O)CC(C)(C)CC4)cc2)NC(=O)OC2COC3(C)OCCC23)cc1 (stereo not drawn) [Compound I-270] | 3.38
COc1ccc(S(=O)(=O)N(CC(C)C)CC(O)C(Cc2ccc(N3CCc4cccc(-c5sc6c(c5C(=O)O)CC(C)(C)CC6)c4C3)cc2)NC(=O)OC2COC3(C)OCCC23)cc1 (stereo not drawn) [Compound I-191] | 2.22
COc1ccc(S(=O)(=O)N(CC(C)C)CC(O)C(Cc2ccc(N3CCC(Oc4ccc(-c5sc6c(c5C(=O)O)CC(C)(C)CC6)cc4)C3)cc2)NC(=O)OC2COC3(C)OCCC23)cc1 (stereo not drawn) [Compound I-350] | 5.32
COc1ccc(S(=O)(=O)N(CC(C)C)CC(O)C(Cc2ccc(OCc3ccccc3-c3sc4c(c3-c3noc(=O)[nH]3)CC(C)(C)CC4)cc2)NC(=O)OC2COC3OCCC23)cc1 (stereo not drawn) [Compound I-815] | 1.63
CC(C)CN(CC(O)C(Cc1ccc(OCc2ccccc2-c2sc3c(c2C(=O)O)CC(C)(C)CC3)cc1)NC(=O)OC1COC2(C)OCCC12)S(=O)(=O)c1ccc(N)cc1 (stereo not drawn) [Compound I-52] | 2.34
COc1ccc(S(=O)(=O)N(CC(C)C)CC(O)C(Cc2ccc(N3CC(Oc4cc5ccccc5cc4C(=O)Nc4sc5c(c4C(=O)O)CC(C)(C)CC5)C3)cc2)NC(=O)OC2COC3(C)OCCC23)cc1 (stereo not drawn) [Compound I-671] | 34.8
COc1ccc(S(=O)(=O)N(CC(C)C)CC(O)C(Cc2ccc(NCc3ccc(O)cc3-c3sc4c(c3C(=O)O)CC(C)(C)CC4)cc2)NC(=O)OC2COC3(C)OCCC23)cc1 (stereo not drawn) [Compound I-548] | 1.49
COc1ccc(S(=O)(=O)N(CC(C)C)CC(O)C(Cc2ccc(NCCOc3ccccc3-c3sc4c(c3C(=O)O)CC(C)(C)CC4)cc2)NC(=O)OC2COC3(C)OCCC23)cc1 (stereo not drawn) [Compound I-619] | 2.48
COc1ccc(S(=O)(=O)N(CC(C)C)CC(O)C(Cc2ccc(OCc3ccccc3-n3nc4c(c3C(=O)O)Cc3ccccc3-4)cc2)NC(=O)OC2COC3(C)OCCC23)cc1 (stereo not drawn) [Compound I-143] | 0.99
COc1ccc(S(=O)(=O)N(CC(C)C)CC(O)C(Cc2ccc(NCc3ccccc3-c3c(C(=O)O)n(Cc4ccccc4)c4ccc(OC)cc34)cc2)NC(=O)OC2COC3(C)OCCC23)cc1 (stereo not drawn) [Compound I-635] | 2.1
